pIC50: −log10 of the molar value. Where two headings read alike, the source gives them in different places.
Key:
BRM = target: T1, BRM (Homo sapiens, UniProt P51531); assay: ATPase catalytic activity of BRM, ADP-Glo in vitro biochemical assay; settings: ATPase catalytic activity, 30 nM BRM, 400 μM ATP; for IC50: read-out: BRM IP50 (μM)*; for pIC50: read-out: BRM IP50
T1 construct: made in house; host or cells: High Five insect cells

BRG-1 = target: T2, BRG-1 (Homo sapiens, UniProt P51532); assay: ATPase catalytic activity of BRG-1, ADP-Glo in vitro biochemical assay; settings: ATPase catalytic activity, 30 nM BRG-1, 400 μM ATP; for IC50: read-out: BRG1 IP50 (μM)*; for pIC50: read-out: BRG1 IP50
T2 construct: made in house; host or cells: High Five insect cells
T2 sequence (P51532 whole entry): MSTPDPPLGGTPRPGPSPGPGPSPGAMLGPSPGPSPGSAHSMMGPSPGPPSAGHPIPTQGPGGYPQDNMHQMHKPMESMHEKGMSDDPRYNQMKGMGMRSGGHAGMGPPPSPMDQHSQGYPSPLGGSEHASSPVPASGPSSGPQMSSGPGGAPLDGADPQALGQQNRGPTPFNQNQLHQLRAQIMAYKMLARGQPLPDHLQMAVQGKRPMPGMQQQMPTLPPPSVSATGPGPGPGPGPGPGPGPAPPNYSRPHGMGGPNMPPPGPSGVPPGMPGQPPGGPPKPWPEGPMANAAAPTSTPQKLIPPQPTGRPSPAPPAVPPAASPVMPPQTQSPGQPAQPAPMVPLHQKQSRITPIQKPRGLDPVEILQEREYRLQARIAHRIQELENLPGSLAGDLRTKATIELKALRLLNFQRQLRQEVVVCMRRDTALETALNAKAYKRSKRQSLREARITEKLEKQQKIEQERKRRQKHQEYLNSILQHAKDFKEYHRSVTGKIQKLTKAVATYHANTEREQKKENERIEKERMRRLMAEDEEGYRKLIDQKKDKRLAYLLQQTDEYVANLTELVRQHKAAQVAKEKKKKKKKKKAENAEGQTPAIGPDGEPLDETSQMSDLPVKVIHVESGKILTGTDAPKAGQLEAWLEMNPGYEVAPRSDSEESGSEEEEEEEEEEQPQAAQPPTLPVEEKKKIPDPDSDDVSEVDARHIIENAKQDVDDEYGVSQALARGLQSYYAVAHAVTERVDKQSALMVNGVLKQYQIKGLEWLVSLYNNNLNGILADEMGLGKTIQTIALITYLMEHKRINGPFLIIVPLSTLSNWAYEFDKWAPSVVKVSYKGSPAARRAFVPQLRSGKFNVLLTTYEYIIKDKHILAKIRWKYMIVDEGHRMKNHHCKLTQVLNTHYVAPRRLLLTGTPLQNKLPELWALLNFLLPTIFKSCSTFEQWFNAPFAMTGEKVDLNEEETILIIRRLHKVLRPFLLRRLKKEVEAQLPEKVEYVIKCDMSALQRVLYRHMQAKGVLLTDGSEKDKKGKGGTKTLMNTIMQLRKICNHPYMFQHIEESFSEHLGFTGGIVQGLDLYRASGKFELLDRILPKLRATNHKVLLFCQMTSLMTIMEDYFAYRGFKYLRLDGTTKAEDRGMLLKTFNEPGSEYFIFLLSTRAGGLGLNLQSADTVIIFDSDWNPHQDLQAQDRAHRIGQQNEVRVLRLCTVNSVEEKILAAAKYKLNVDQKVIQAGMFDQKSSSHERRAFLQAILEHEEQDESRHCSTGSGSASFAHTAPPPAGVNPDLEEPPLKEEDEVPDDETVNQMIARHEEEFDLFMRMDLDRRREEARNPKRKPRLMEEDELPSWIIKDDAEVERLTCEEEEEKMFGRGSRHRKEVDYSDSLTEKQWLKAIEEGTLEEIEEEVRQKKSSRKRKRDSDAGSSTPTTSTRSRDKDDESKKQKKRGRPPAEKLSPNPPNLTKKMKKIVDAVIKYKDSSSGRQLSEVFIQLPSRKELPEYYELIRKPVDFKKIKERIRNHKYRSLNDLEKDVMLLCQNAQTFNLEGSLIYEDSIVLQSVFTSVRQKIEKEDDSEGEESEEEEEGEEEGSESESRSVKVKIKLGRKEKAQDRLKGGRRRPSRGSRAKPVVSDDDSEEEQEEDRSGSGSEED

T1 sequence (P51531 whole entry): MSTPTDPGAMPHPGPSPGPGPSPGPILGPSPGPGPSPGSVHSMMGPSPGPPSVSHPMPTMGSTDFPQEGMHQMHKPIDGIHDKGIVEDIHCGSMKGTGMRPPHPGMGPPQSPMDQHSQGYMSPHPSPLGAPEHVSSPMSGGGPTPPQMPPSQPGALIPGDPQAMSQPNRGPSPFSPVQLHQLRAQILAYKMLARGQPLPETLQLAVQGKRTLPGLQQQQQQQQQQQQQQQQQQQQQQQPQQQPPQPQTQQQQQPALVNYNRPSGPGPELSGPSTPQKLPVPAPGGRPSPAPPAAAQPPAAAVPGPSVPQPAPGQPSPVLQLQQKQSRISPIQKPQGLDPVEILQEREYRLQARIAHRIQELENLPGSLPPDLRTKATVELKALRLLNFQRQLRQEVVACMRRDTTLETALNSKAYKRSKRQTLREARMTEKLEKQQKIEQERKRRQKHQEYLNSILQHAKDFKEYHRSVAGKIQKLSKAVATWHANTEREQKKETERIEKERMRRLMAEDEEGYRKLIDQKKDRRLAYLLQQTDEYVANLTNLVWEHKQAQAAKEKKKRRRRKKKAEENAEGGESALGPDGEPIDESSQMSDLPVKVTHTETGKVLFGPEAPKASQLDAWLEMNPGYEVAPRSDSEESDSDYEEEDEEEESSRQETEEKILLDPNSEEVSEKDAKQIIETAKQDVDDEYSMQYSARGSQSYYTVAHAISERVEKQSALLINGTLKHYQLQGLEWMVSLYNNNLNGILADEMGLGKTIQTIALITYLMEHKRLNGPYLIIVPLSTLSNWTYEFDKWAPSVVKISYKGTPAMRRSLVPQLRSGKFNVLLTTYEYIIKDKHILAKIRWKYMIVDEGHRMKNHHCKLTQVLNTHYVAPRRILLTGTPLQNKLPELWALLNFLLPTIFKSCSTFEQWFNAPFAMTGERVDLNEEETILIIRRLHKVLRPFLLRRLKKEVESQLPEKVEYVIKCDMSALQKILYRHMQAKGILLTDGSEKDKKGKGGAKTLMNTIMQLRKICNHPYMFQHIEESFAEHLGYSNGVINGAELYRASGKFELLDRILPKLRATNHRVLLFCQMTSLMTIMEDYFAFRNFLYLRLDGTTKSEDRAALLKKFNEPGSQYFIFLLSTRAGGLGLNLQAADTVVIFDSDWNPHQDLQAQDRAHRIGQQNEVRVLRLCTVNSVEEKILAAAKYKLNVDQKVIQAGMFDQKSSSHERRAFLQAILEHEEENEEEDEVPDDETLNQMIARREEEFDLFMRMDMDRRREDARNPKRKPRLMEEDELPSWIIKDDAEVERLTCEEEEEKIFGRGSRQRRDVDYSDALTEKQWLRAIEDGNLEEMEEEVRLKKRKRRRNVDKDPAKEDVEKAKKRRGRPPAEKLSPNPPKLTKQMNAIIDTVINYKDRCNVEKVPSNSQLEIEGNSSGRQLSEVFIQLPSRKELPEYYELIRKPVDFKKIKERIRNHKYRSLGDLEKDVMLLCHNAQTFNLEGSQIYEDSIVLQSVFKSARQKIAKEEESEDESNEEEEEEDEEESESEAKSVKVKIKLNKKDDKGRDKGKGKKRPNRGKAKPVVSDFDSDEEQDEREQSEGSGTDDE

SMILES | IC50 (BRM) | IC50 (BRG-1) | pIC50 (BRM) | pIC50 (BRG-1)
C[C@@H]1CN(c2cccc(-c3cccc(NC(=O)CNC(=O)c4ccn(S(C)(=O)=O)c4)n3)c2)C[C@H](C)O1 [Compound 374, N-[2-[[6-[3-[(cis)-2,6-dimethylmorpholin-4-yl]phenyl]-2-pyridyl]amino]-2-oxo-ethyl]-1-methylsulfonyl-pyrrole-3-carboxamide] | > 0.01 µM | > 0.01 µM | – | –
C[C@@H]1CN(c2cccc(-c3csc(NC(=O)[C@H](CO)NC(=O)c4ccn(C5(C)COC5)c4)n3)n2)C[C@H](C)O1 [Compound 375] | > 0.01 µM | > 0.01 µM | – | –
COC[C@H](NC(=O)c1ccn(C2(C)COC2)c1)C(=O)Nc1nc(-c2ccc(F)c(N3C[C@@H](C)O[C@@H](C)C3)n2)cs1 [Compound 376] | > 0.01 µM | > 0.01 µM | – | –
COC[C@H](NC(=O)c1ccn(S(C)(=O)=O)c1)C(=O)Nc1nc(-c2ccc(F)c(N3C[C@@H](C)O[C@@H](C)C3)n2)cs1 [Compound 377] | < 0.01 µM | > 0.01 µM | – | –
C[C@@H]1CN(c2nc(-c3csc(NC(=O)CNC(=O)c4ccn(C5(C)COC5)c4)n3)ccc2F)C[C@H](C)O1 [Compound 378] | < 0.01 µM | > 0.01 µM | – | –
C[C@@H]1CN(c2nc(-c3csc(NC(=O)CNC(=O)c4ccn(S(C)(=O)=O)c4)n3)ccc2F)C[C@H](C)O1 [Compound 379] | < 0.01 µM | < 0.01 µM | – | –
COC[C@H](NC(=O)c1ccn(S(C)(=O)=O)c1)C(=O)Nc1nc(-c2cc(F)c(F)c(N3C[C@@H](C)O[C@@H](C)C3)c2)cs1 [Compound 380] | < 0.01 µM | < 0.01 µM | – | –
COC[C@H](NC(=O)c1ccn(C(C)(C)C)c1)C(=O)Nc1nc(-c2ccnc(N3C[C@@H](C)O[C@@H](C)C3)n2)cs1 [Compound 381] | < 0.01 µM | > 0.01 µM | – | –
Cn1ncc(-c2cccc(-c3csc(NC(=O)CNC(=O)c4ccn(C(C)(C)C)c4)n3)n2)n1 [Compound 382, 1-tert-butyl-N-[2-[[4-[6-(2-methyltriazol-4-yl)-2-pyridyl]thiazol-2-yl]amino]-2-oxo-ethyl]pyrrole-3-carboxamide] | > 0.01 µM | > 0.01 µM | – | –
CN1CCCc2ccc(-c3csc(NC(=O)CNC(=O)c4ccn(C(C)(C)C)c4)n3)nc21 [Compound 383] | > 0.01 µM | > 0.1 µM | – | –
C[C@@H]1CN(c2cc(-c3csc(NC(=O)CNC(=O)c4ccn(S(C)(=O)=O)c4)n3)cc(F)c2F)C[C@H](C)O1 [Compound 384] | < 0.01 µM | < 0.01 µM | – | –
CS(=O)(=O)n1ccc(C(=O)NCC(=O)Nc2nc(-c3cccc([C@H]4CC[C@H](O)CC4)c3)cs2)c1 [Compound 386, N-(2-((4-(3-((trans)-4-hydroxycyclohexyl)phenyl)thiazol-2-yl)amino)-2-oxoethyl)-1-(methylsulfonyl)-1H-pyrrole-3-carboxamide] | – | – | > 8.00 | > 8.00
CS(=O)(=O)n1ccc(C(=O)NCC(=O)Nc2nc(-c3cccc([C@H]4CC[C@@H](O)CC4)c3)cs2)c1 [Compound 387, N-(2-((4-(3-((cis)-4-hydroxycyclohexyl)phenyl)thiazol-2-yl)amino)-2-oxoethyl)-1-(methylsulfonyl)-1H-pyrrole-3-carboxamide] | – | – | < 8.00 | < 8.00
CC1(C)CC(c2cccc(-c3csc(NC(=O)CNC(=O)c4ccn(S(C)(=O)=O)c4)n3)c2)CC(C)(C)O1 [Compound 388] | – | – | < 8.00 | < 7.00
CS(=O)(=O)n1ccc(C(=O)NCC(=O)Nc2nc(-c3cccc(C4=CCN(C5COC5)CC4)c3)cs2)c1 [Compound 389] | – | – | < 8.00 | < 8.00
CS(=O)(=O)n1ccc(C(=O)NCC(=O)Nc2nc(-c3cccc([C@H]4CCCCO4)c3)cs2)c1 [Compound 393] | – | – | < 8.00 | < 8.00
CN1CCCc2ccc(-c3csc(NC(=O)CNC(=O)c4ccn(S(C)(=O)=O)c4)n3)nc21 [Compound 394] | – | – | < 8.00 | < 8.00
CC(C)(C)n1ccc(C(=O)NCC(=O)Nc2nc(-c3cccc(C4(O)CC4)n3)cs2)c1 [Compound 395] | – | – | < 7.00 | < 7.00
CS(=O)(=O)n1ccc(C(=O)NCC(=O)Nc2nc(-c3cccc(C4=CCCOC4)c3)cs2)c1 [Compound 396, N-[2-[[4-[3-(3,6-dihydro-2H-pyran-5-yl)phenyl]thiazol-2-yl]amino]-2-oxo-ethyl]-1-methylsulfonyl-pyrrole-3-carboxamide] | – | – | > 8.00 | < 8.00
CC(C)(C)n1ccc(C(=O)NCC(=O)Nc2nc(-c3cccc(N4CCC5(CC4)COC5)c3)cs2)c1 [Compound 397, N-(2-((4-(3-(2-oxa-7-azaspiro[3.5]nonan-7-yl)phenyl)thiazol-2-yl)amino)-2-oxoethyl)-1-(tert-butyl)-1H-pyrrole-3-carboxamide] | – | – | < 7.00 | < 7.00
CS(=O)(=O)n1ccc(C(=O)NCC(=O)Nc2nc(-c3cccc(C4CCOCC4)c3)cs2)c1 [Compound 399] | – | – | < 8.00 | < 8.00
CS(=O)(=O)n1ccc(C(=O)NCC(=O)Nc2nc(-c3cccc(C4=CCOCC4)c3)cs2)c1 [Compound 400] | – | – | > 8.00 | > 8.00

SMILES | IC50 (BRM) | IC50 (BRG-1) | pIC50 (BRM) | pIC50 (BRG-1)
Cc1ccc(Cl)c(-c2cc(-c3csc(NC(=O)CNC(=O)c4ccn(S(C)(=O)=O)c4)n3)ccc2C)n1 [Compound 401, N-(2-((4-(3-(3-chloro-6-methylpyridin-2-yl)-4-methylphenyl)thiazol-2-yl)amino)-2-oxoethyl)-1-(methylsulfonyl)-1H-pyrrole-3-carboxamide] | – | – | < 7.00 | < 7.00
Cc1cc(-c2cccc(-c3csc(NC(=O)CNC(=O)c4ccn(C(C)(C)C)c4)n3)c2)cnn1 [Compound 402] | – | – | > 8.00 | < 8.00
CCS(=O)(=O)n1ccc(C(=O)NCC(=O)Nc2nc(-c3cccc(-c4cnn(C)n4)c3)cs2)c1 [Compound 403] | – | – | < 8.00 | < 8.00
CS(=O)(=O)n1ccc(C(=O)NCC(=O)Nc2nc(-c3cccc(-c4cc5n(n4)CCOC5)c3)cs2)c1 [Compound 404] | – | – | > 8.00 | < 8.00
Cc1cc(C)nc(-c2cccc(-c3csc(NC(=O)CNC(=O)c4ccn(S(C)(=O)=O)c4)n3)c2)n1 [Compound 405] | – | – | > 8.00 | > 8.00
Cc1cc(C)nc(-c2cccc(-c3csc(NC(=O)CNC(=O)c4ccn(S(C)(=O)=O)c4)n3)c2)c1 [Compound 406] | – | – | > 8.00 | > 8.00
Cc1cccc(-c2cccc(-c3csc(NC(=O)CNC(=O)c4ccn(S(C)(=O)=O)c4)n3)c2)n1 [Compound 407] | – | – | > 8.00 | > 8.00
CS(=O)(=O)n1ccc(C(=O)NCC(=O)Nc2nc(-c3cccc(-c4ccnc(N5CCC5)n4)c3)cs2)c1 [Compound 408, N-[2-[[4-[3-[2-(azetidin-1-yl)pyrimidin-4-yl]phenyl]thiazol-2-yl]amino]-2-oxo-ethyl]-1-methylsulfonyl-pyrrole-3-carboxamide] | – | – | > 8.00 | > 8.00
CS(=O)(=O)n1ccc(C(=O)NCC(=O)Nc2nc(-c3cccc(-c4ccnc(C5CC5)n4)c3)cs2)c1 [Compound 409] | – | – | > 8.00 | > 8.00
CS(=O)(=O)n1ccc(C(=O)NCC(=O)Nc2nc(-c3cccc(-c4ccnc(Cl)n4)c3)cs2)c1 [Compound 410] | – | – | > 8.00 | > 8.00
CC1(C)C=C(c2cccc(-c3csc(NC(=O)CNC(=O)c4ccn(S(C)(=O)=O)c4)n3)c2)CC(C)(C)O1 [Compound 411] | – | – | < 8.00 | < 8.00
Cc1cc(-c2cccc(-c3csc(NC(=O)CNC(=O)c4ccn(S(C)(=O)=O)c4)n3)c2)nc(C)n1 [Compound 412] | – | – | > 8.00 | > 8.00
Cc1cc(-c2cccc(-c3csc(NC(=O)CNC(=O)c4ccn(S(C)(=O)=O)c4)n3)c2)c(F)cn1 [Compound 413] | – | – | > 8.00 | > 8.00
CNC(=O)C(C)(C)n1ccc(-c2cccc(-c3csc(NC(=O)CNC(=O)c4ccn(S(C)(=O)=O)c4)n3)c2)n1 [Compound 414, N-[2-[[4-[3-[1-[1,1-dimethyl-2-(methylamino)-2-oxo-ethyl]pyrazol-3-yl]phenyl]thiazol-2-yl]amino]-2-oxo-ethyl]-1-methylsulfonyl-pyrrole-3-carboxamide] | – | – | > 8.00 | > 8.00
CC(C)(C)n1ccc(C(=O)NCC(=O)Nc2nc(-c3cccc(-c4cc5n(n4)CCOC5)c3)cs2)c1 [Compound 415] | – | – | < 8.00 | < 8.00
Cc1nccc(-c2cccc(-c3csc(NC(=O)CNC(=O)c4ccn(S(C)(=O)=O)c4)n3)c2)n1 [Compound 416] | – | – | > 8.00 | > 8.00
Cc1cccc(-c2cccc(-c3csc(NC(=O)CNC(=O)c4ccn(C(C)(C)C)c4)n3)c2)n1 [Compound 417] | – | – | > 8.00 | < 8.00
CN(C)C(=O)C(C)(C)n1ccc(-c2cccc(-c3csc(NC(=O)CNC(=O)c4ccn(S(C)(=O)=O)c4)n3)c2)n1 [Compound 418] | – | – | < 8.00 | < 8.00
CS(=O)(=O)n1ccc(C(=O)NCC(=O)Nc2nc(-c3cccc([C@@H]4CCCOC4)c3)cs2)c1 [Compound 419, 1-methylsulfonyl-N-[2-oxo-2-[[4-[3-[(3S)-tetrahydropyran-3-yl]phenyl]thiazol-2-yl]amino]ethyl]pyrrole-3-carboxamide] | – | – | < 8.00 | < 7.00
CS(=O)(=O)n1ccc(C(=O)NCC(=O)Nc2nc(-c3cccc([C@H]4CCCOC4)c3)cs2)c1 [Compound 420, 1-methylsulfonyl-N-[2-oxo-2-[[4-[3-[(3R)-tetrahydropyran-3-yl]phenyl]thiazol-2-yl]amino]ethyl]pyrrole-3-carboxamide] | – | – | < 8.00 | < 8.00
CS(=O)(=O)n1ccc(C(=O)NCC(=O)Nc2nc(-c3cccc(-c4ccnc(CC(=O)O)c4)c3)cs2)c1 [Compound 421, Sodium 2-(4-(3-(2-(2-(1-(methylsulfonyl)-1H-pyrrole-3-carboxamido)acetamido)thiazol-4-yl)phenyl)pyridin-2-yl)acetate] | – | – | < 8.00 | < 8.00
